Results as given in patent publication US12108719B2, “Methods for creating doubled haploid plants” (Monsanto Technology LLC, priority 2015, dated 2024).

Tested on: diploid maize plant
Assay: Multibud induction, embryo axis method (Example 8)
Type: in vivo
Method: Seeds of a diploid maize plant were surface sterilized comprising immersion using standard methods of the art and then germinated in vitro in growth media. One of the resulting seedlings was dissected from its seed two days after germination (embryo axis method). The dissected axis was then subjected to a multibud induction treatment comprising transfer to fresh multibud induction media containing cytokinin in the form of 10 mg/L BAP. After seven days in the multibud bud induction media, the treated seedlings were transferred back to a hormone-free regeneration media. […] These multibuds were dissected from the mother plant and transferred to rooting media comprising IBA and IAA. After approximately one week, the multibud-derived plants were transplanted into 10 inch pots and allowed to grow in a greenhouse until it was clear that each autonomously-growing multibud-derived shoot had formed ears and tassels that nicked. Each ear was then pollinated from the tassel growing in the same pot and then all plants were allowed to grow in greenhouse conditions until seed set.

## c1ccc(CNc2ncnc3nc[nH]c23)cc1 [BAP, 6-Benzylaminopurine]
10 mg/L BAP for seven days, observed after approximately twenty days
  multibud formation: induced multibuds could be seen growing from the nodal regions of the stem
10 mg/L BAP multibud induction, self-pollinated multibud-derived plants
  seed borne by ears of multibud-derived plants: dozens of seed each
